Measured values reported in patent US20250262241A1, “METHODS TO IMPROVE STABILITY OF VIRUS TRANSDUCTION OF y8 T CELLS AND APPLICATIONS THEREOF” (UNICET BIOTECH CO. LLC., priority 2021, published 2025).

Tests used:
γδ2 T cells = experiment: CAR (B7H3) related lentivirus transduction of γδ2 T cells with small inhibitors: transduction rate; format: cell-based, human; conditions: 0.6 uM, day 10; control below 10%
Experimental: VSV-G pseudotyped lentiviral vectors were applied in this method. 1×10^7 293T cells were plated into a poly-D-lysine coated 100 mm dish. Next day the cells were transfected with 6 μg of pCDH-EF1-MCS-T2A-copGFP plasmid (Addgene, Plasmid #72263) or pCDH-EF1-CAR-T2A-copGFP plasmid modified from pCDH-EF1-MCS-T2A-copGFP, 4 μg of pspAx2 (Addgene, Plasmid #12260), 2 μg of pCMV-VSV-G (Addgene, Plasmid #8454) using 30 ug PEI transfection regents. After 8 hours of transfection, the cell culture medium was changed. The supernatant were collected 48 hours and 72 hours later. Concentrated the virus with Lenti-X™ Concentrator (Takara) and monitored the virus titers by transduction of 293T cells and stored the concentrated virus in −80° C. until further use.
For lentivirus transduction, 1×10^CFU lentivirus diluted in 200 ul PBS were added in a 24-well plate which were pre-coated with RetroNectin reagent (Takara) and centrifugated by 2,000 g for 2 hours at 32° C. After centrifugation, removed the supernatant and washed the plate with PBS three times slightly.
For the virus transduction of γδ2 T cells, seeded 1×10^PBMCs which were in vitro cultured after 48 hours in the γδ2 T cell culture medium mentioned above (Gibco serum free medium with rhIL-2 and ZOL). Added or not small inhibitors and mixed well and concentrated the cells by 800 g for 10 mins at 32° C. The plates were incubated at 37° C., 5% CO2. Discarded the small inhibitors regent by changing the cell culture medium 24 hours later.
Calculate the cell number by an automated cell counter and the transduction rate (GFP positive rate) was analyzed by flow cytometry every 2 to 3 days. The transduction rate was monitored in the gate of γδ2 or γδ1 T cells.

IKKε = target: T1, IKKε (Homo sapiens, UniProt Q14164); conditions: cited from earlier work
T1 sequence (Q14164 1-716): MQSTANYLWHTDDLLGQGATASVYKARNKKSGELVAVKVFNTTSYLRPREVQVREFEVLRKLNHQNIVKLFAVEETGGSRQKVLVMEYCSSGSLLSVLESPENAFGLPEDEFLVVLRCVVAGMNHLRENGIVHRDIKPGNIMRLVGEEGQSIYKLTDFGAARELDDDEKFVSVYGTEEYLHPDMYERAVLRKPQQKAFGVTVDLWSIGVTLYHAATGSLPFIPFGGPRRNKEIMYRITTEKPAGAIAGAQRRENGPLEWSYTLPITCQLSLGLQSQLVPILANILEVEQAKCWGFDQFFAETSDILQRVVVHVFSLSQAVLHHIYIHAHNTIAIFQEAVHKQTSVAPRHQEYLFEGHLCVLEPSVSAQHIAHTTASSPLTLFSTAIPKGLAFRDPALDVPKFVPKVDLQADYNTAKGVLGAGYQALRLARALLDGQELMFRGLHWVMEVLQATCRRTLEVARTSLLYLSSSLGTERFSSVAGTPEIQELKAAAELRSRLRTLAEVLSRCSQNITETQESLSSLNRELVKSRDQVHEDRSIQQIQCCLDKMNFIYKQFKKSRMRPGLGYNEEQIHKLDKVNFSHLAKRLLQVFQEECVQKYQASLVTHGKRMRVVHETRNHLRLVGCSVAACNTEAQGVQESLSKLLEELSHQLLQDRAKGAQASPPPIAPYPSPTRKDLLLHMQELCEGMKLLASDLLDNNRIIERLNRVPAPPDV

In the case of BX795, the transduction rate (γδ2 T cells) is listed as “around 40%” and the IC50 (IKKε) is listed as 0.041 µM.
